Test: Anticancer human tumor 997537-175-T-J1-PDC patient-derived colon adenocarcinoma cell line growth inhibition [POLQ]
Details: 997537-175-T-J1-PDC complex spheroid viability, combination with POLQ inhibitors; for IC50: curve of first compound; for viability, T/C: stronger effect = lower value
Summary of the method: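 Growth inhibition in 3D: complex spheroids (tumor PDC, HUVEC, MSC) treated with POLQ inhibitor combinations; where Cmax unknown, highest tested concentration 10 microM, except SN-38 at 1 microM.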

[1] = second compound 0.0316 µM, first compound 0.0316 µM
[2] = second compound 0.0316 µM, first compound 0.1 µM
[3] = second compound 0.0316 µM, first compound 0.316 µM
[4] = second compound 0.0316 µM, first compound 1 µM
[5] = second compound 0.0316 µM, first compound 3.16 µM
[6] = second compound 0.0316 µM, first compound 10 µM
[7] = second compound 0.1 µM, first compound 0.0316 µM
[8] = second compound 0.1 µM, first compound 0.1 µM
[9] = second compound 0.1 µM, first compound 0.316 µM
[10] = second compound 0.1 µM, first compound 1 µM
[11] = second compound 0.1 µM, first compound 3.16 µM
[12] = second compound 0.1 µM, first compound 10 µM
[13] = second compound 0.316 µM, first compound 0.0316 µM
[14] = second compound 0.316 µM, first compound 0.1 µM
[15] = second compound 0.316 µM, first compound 0.316 µM
[16] = second compound 0.316 µM, first compound 1 µM
[17] = second compound 0.316 µM, first compound 3.16 µM
[18] = second compound 0.316 µM, first compound 10 µM
[19] = second compound 1 µM, first compound 0.0316 µM
[20] = second compound 1 µM, first compound 0.1 µM
[21] = second compound 1 µM, first compound 0.316 µM
[22] = second compound 1 µM, first compound 1 µM
[23] = second compound 1 µM, first compound 3.16 µM
[24] = second compound 1 µM, first compound 10 µM
[25] = second compound 3.16 µM, first compound 0.0316 µM
[26] = second compound 3.16 µM, first compound 0.1 µM
[27] = second compound 3.16 µM, first compound 0.316 µM
[28] = second compound 3.16 µM, first compound 1 µM
[29] = second compound 3.16 µM, first compound 3.16 µM
[30] = second compound 3.16 µM, first compound 10 µM
[31] = second compound 10 µM, first compound 0.0316 µM
[32] = second compound 10 µM, first compound 0.1 µM
[33] = second compound 10 µM, first compound 0.316 µM
[34] = second compound 10 µM, first compound 1 µM
[35] = second compound 10 µM, first compound 3.16 µM
[36] = second compound 10 µM, first compound 10 µM
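Also: luminescence signal used as a surrogate for viable cells; spheroids exposed to drugs for seven days before readout.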

CCCS(=O)(=O)Nc1ccc(F)c(C(=O)c2c[nH]c3ncc(-c4ccc(Cl)cc4)cc23)c1F + Cc1cccc(N(C)C(=O)C2C(O)CCN2c2nc(C)cc(C(F)(F)F)c2C#N)c1
IC50 (second compound 0.0316 µM): 4.85 µM | IC50 (second compound 0.1 µM): 5.35 µM | IC50 (second compound 0.316 µM): 5.84 µM | IC50 (second compound 1 µM): 4.49 µM | IC50 (second compound 3.16 µM): 6.65 µM | IC50 (second compound 10 µM): 5.16 µM | viability, T/C [1]: 100% | viability, T/C [2]: 79.5% | viability, T/C [3]: 82.5% | viability, T/C [4]: 75.4% | viability, T/C [5]: 70.5% | viability, T/C [6]: 22.8% | viability, T/C [7]: 105% | viability, T/C [8]: 91.7% | viability, T/C [9]: 82.4% | viability, T/C [10]: 83% | viability, T/C [11]: 74.5% | viability, T/C [12]: 25.9% | viability, T/C [13]: 105% | viability, T/C [14]: 78% | viability, T/C [15]: 71.7% | viability, T/C [16]: 75.4% | viability, T/C [17]: 80.8% | viability, T/C [18]: 23.1% | viability, T/C [19]: 102% | viability, T/C [20]: 87.4% | viability, T/C [21]: 85.9% | viability, T/C [22]: 75.7% | viability, T/C [23]: 61.5% | viability, T/C [24]: 29.5% | viability, T/C [25]: 85.7% | viability, T/C [26]: 77% | viability, T/C [27]: 77.7% | viability, T/C [28]: 68% | viability, T/C [29]: 75.1% | viability, T/C [30]: 36.7% | viability, T/C [31]: 92.3% | viability, T/C [32]: 88.9% | viability, T/C [33]: 86.1% | viability, T/C [34]: 81.5% | viability, T/C [35]: 73.3% | viability, T/C [36]: 20.6%

COc1cc2cc(C(=O)CCC(=O)O)sc2cc1OC + Nc1ccc(C#CCN(C(=O)Cc2ncc(C(F)(F)F)cc2C(F)(F)F)c2ccc(F)cc2)nn1
IC50 (second compound 0.0316 µM): > 10 µM | IC50 (second compound 0.1 µM): > 10 µM | IC50 (second compound 0.316 µM): > 10 µM | IC50 (second compound 1 µM): > 10 µM | IC50 (second compound 3.16 µM): > 10 µM | IC50 (second compound 10 µM): > 10 µM | viability, T/C [1]: 107% | viability, T/C [2]: 107% | viability, T/C [3]: 109% | viability, T/C [4]: 99.7% | viability, T/C [5]: 96.8% | viability, T/C [6]: 96.7% | viability, T/C [7]: 91.2% | viability, T/C [8]: 102% | viability, T/C [9]: 98.2% | viability, T/C [10]: 108% | viability, T/C [11]: 101% | viability, T/C [12]: 105% | viability, T/C [13]: 99.1% | viability, T/C [14]: 105% | viability, T/C [15]: 109% | viability, T/C [16]: 98% | viability, T/C [17]: 91.8% | viability, T/C [18]: 95.4% | viability, T/C [19]: 94.4% | viability, T/C [20]: 89.5% | viability, T/C [21]: 82% | viability, T/C [22]: 105% | viability, T/C [23]: 96.5% | viability, T/C [24]: 89.9% | viability, T/C [25]: 105% | viability, T/C [26]: 101% | viability, T/C [27]: 97.5% | viability, T/C [28]: 86.1% | viability, T/C [29]: 100% | viability, T/C [30]: 92.5% | viability, T/C [31]: 101% | viability, T/C [32]: 91.4% | viability, T/C [33]: 106% | viability, T/C [34]: 111% | viability, T/C [35]: 101% | viability, T/C [36]: 107%

CC1COCCN1c1cc(-c2ccnn2C)c2ccnc(-c3ccn[nH]3)c2n1 (stereo unspecified) + Cc1cccc(N(C)C(=O)C2C(O)CCN2c2nc(C)cc(C(F)(F)F)c2C#N)c1
IC50 (second compound 0.0316 µM): > 10 µM | IC50 (second compound 0.1 µM): > 10 µM | IC50 (second compound 0.316 µM): 1.48 µM | IC50 (second compound 1 µM): > 10 µM | IC50 (second compound 3.16 µM): 0.761 µM | IC50 (second compound 10 µM): > 10 µM | viability, T/C [1]: 88.5% | viability, T/C [2]: 86.1% | viability, T/C [3]: 71.5% | viability, T/C [4]: 43.5% | viability, T/C [5]: 45.5% | viability, T/C [6]: 63.2% | viability, T/C [7]: 87.9% | viability, T/C [8]: 87% | viability, T/C [9]: 73.4% | viability, T/C [10]: 53.4% | viability, T/C [11]: 53.2% | viability, T/C [12]: 54.7% | viability, T/C [13]: 94.2% | viability, T/C [14]: 93.5% | viability, T/C [15]: 74% | viability, T/C [16]: 50.5% | viability, T/C [17]: 52.4% | viability, T/C [18]: 45.3% | viability, T/C [19]: 96.6% | viability, T/C [20]: 84.9% | viability, T/C [21]: 48.8% | viability, T/C [22]: 47.1% | viability, T/C [23]: 61.4% | viability, T/C [24]: 65.2% | viability, T/C [25]: 107% | viability, T/C [26]: 80.8% | viability, T/C [27]: 53.7% | viability, T/C [28]: 30.5% | viability, T/C [29]: 67.1% | viability, T/C [30]: 48.6% | viability, T/C [31]: 72.1% | viability, T/C [32]: 80.7% | viability, T/C [33]: 54.8% | viability, T/C [34]: 42% | viability, T/C [35]: 68.9% | viability, T/C [36]: 50.1%

From PubChem BioAssay AID1963825 (Molecular Pharmacology Branch, DTP, NCI, 2024)
